Results reported in US5869460A, “Sulfated and phosphated saccharide derivatives, process for the preparation of the same and use thereof” (Sanwa Kaguku Kenkyusho Co., Ltd., priority 1995, dated 1999).

How the values were obtained:
[1] = tested on: lung damage model induced by cobra venom factor (CVF); bleeding; assay: Anti-inflammatory action to lung damage model induced by CVF: index of bleeding (hemoglobin absorbance, 541 nm, in lung homogenate supernatant); format: in vivo, Lewis rats; settings: Rattus norvegicus, iv, 0.5 h, read-out: Inhibition rate (%), index of bleeding
Description: (§1) Anti-inflammatory action to lung damage model induced by CVF Compounds obtained by Examples and an exemplary known compound (sulfatide) were selected as Test Compounds to check an inflammatory action thereof to a lung damage model induced by cobra venom factor (CVF), in accordance with the method described by M. S. Mulligan et al ["J. IMMUNOL.", Vol.151, page 6410 (1993); and "INT. IMMUNOL.", Vol. 7, page 1107 (1995)].
(§2) Namely, the test compound was intravenously injected by an amount of 0.2 mg/rat to test animals (Lewis rats, age of 8 weeks, 5 animals in each group). After lapsed 5 minutes from administration, CVF (20U/2 ml/kg) was administered in a tail vein, and after 30 minutes, a laparotomy was carried out under nembutal anesthesia to perfuse the lung with phosphate-buffered saline (PBS, pH7.4) by injecting the same from right ventricle and to exenterate the lung. The extracted lung was homogenized with phosphate buffer (pH 7.4), centrifuged to collect a supernatant, and determined absorbance which was admitted as index of bleeding (It measures an amount of hemoglobin and thus detection wave-length was set to 541 nm).
(§3) Each inhibition rate (%) was calculated by
(§4) 100×[1-(value of test compound-value of negative control)/(value of positive control-value of negative control)].

[2] = tested on: lung damage model induced by cobra venom factor (CVF); infiltration in neutrocyte (myeloperoxidase); assay: Anti-inflammatory action to lung damage model induced by CVF: myeloperoxidase activity as index of infiltration in neutrocyte; format: in vivo, Lewis rats; settings: Rattus norvegicus, iv, 0.5 h, read-out: Inhibition rate (%), myeloperoxidase activity as index of infiltration in neutrocyte
Description: as §1, §2
On the other hand, the precipitation obtained by centrifugation was sonicated in the presence of cetrimide and centrifuged to obtain a supernatant, an activity myeloperoxidase therein being measured as an index of infiltration in neutrocyte.
as §3, §4

## CCCC(CCC)CO[C@@H]1O[C@H](CO)[C@H](O)[C@H](OP(=O)(O)O)[C@H]1O[C@@H]1O[C@@H](C)[C@@H](O)[C@@H](OP(=O)(O)O)[C@@H]1O [Example 24-2, tetrasodium 2-propylpentyl O-α-L-fucopyranosyl-(1→2)-β-D-galactopyranoside 3,3'-diphosphate]
[1]
  inhibition in vivo at 0.2 mg: 50%
[2]
  inhibition in vivo at 0.2 mg: 49%

## CC(C)CO[C@@H]1O[C@H](COS(=O)(=O)O)[C@H](O)[C@H](OS(=O)(=O)O)[C@H]1O [Example 1-2, disodium 2-methylpropyl β-D-galactopyranoside 3,6-disulfate]
[1]
  inhibition in vivo at 0.2 mg: 16%
[2]
  inhibition in vivo at 0.2 mg: 22%

## CC(C)CO[C@@H]1O[C@H](COS(=O)(=O)O)[C@H](OS(=O)(=O)O)[C@H](OS(=O)(=O)O)[C@H]1O [Example 3-1, trisodium 2-methylpropyl β-D-galactopyranoside 3,4,6-trisulfate]
[1]
  inhibition in vivo at 0.2 mg: 27%
[2]
  inhibition in vivo at 0.2 mg: 36%

## CC(C)CO[C@@H]1O[C@H](CO)[C@@H](O[C@@H]2O[C@H](COS(=O)(=O)O)[C@H](O)[C@H](OS(=O)(=O)O)[C@H]2O)[C@H](O)[C@H]1O [Example 9-2, disodium 2-methylpropyl O-β-D-galactopyranosyl-(1→4)-β-D-glucopyranoside 3',6'-disulfate]
[1]
  inhibition in vivo at 0.2 mg: 100%
[2]
  inhibition in vivo at 0.2 mg: 86%

## CCCCCCCCCCCCCCC(CCCCCCCCCCCCCC)CO[C@@H]1O[C@H](CO)[C@@H](O[C@@H]2O[C@H](CO)[C@H](OP(=O)(O)O)[C@H](OP(=O)(O)O)[C@H]2O)[C@H](O)[C@H]1O [Example 22, Tetrasodium 2-tetradecylhexadecyl O-β-D-galactopyranosyl-(1→4)-β-D-glucopyranoside 3',4'-diphosphate]
[1]
  inhibition in vivo at 0.2 mg: 65%
[2]
  inhibition in vivo at 0.2 mg: 58%

## CCCC(CCC)CO[C@@H]1O[C@H](CO)[C@H](O)[C@H](OP(=O)(O)O)[C@H]1O[C@@H]1O[C@@H](C)[C@@H](O)[C@@H](O)[C@@H]1O [Example 23-2, disodium 2-propylpentyl O-α-L-fucopyranosyl-(1→2)-β-D-galactopyranoside 3-phosphate]
[1]
  inhibition in vivo at 0.2 mg: 51%
[2]
  inhibition in vivo at 0.2 mg: 49%

## CCCC(CCC)CO[C@@H]1O[C@H](CO)[C@H](OP(=O)(O)O)[C@H](OP(=O)(O)O)[C@H]1O [Example 16, Tetrasodium 2-propylpentyl β-D-galactopyranoside 3,4-diphosphate]
[1]
  inhibition in vivo at 0.2 mg: 75%
[2]
  inhibition in vivo at 0.2 mg: 70%

## CCCCCCCCCCCCCCC(CCCCCCCCCCCCCC)CO[C@@H]1O[C@H](CO)[C@H](O)[C@H](OS(=O)(=O)O)[C@H]1O[C@@H]1O[C@@H](C)[C@@H](O)[C@@H](OS(=O)(=O)O)[C@@H]1O [Example 28-1, disodium 2-tetradecylhexadecyl O-α-L-fucopyranosyl-(1→2)-β-D-galactopyranoside 3,3'-disulfate]
[1]
  inhibition in vivo at 0.2 mg: 63%
[2]
  inhibition in vivo at 0.2 mg: 60%

## CCCC(CCC)CO[C@@H]1O[C@H](CO)[C@H](O)[C@H](OS(=O)(=O)O)[C@H]1O[C@@H]1O[C@@H](C)[C@@H](O)[C@@H](O)[C@@H]1O [Example 23-1, Sodium 2-propylpentyl O-α-L-fucopyranosyl-(1→2)-β-D-galactopyranoside 3-sulfate]
[1]
  inhibition in vivo at 0.2 mg: 53%
[2]
  inhibition in vivo at 0.2 mg: 51%

## CCCC(CCC)CO[C@@H]1O[C@H](COS(=O)(=O)O)[C@H](O)[C@H](OS(=O)(=O)O)[C@H]1OS(=O)(=O)O [Example 7-1, Trisodium 2-propylpentyl β-D-galactopyranoside 2,3,6-trisulfate]
[1]
  inhibition in vivo at 0.2 mg: 36%
[2]
  inhibition in vivo at 0.2 mg: 26%

## CC(C)CO[C@@H]1O[C@H](CO)[C@@H](O[C@@H]2O[C@H](CO)[C@H](O)[C@H](OS(=O)(=O)O)[C@H]2O)[C@H](O)[C@H]1O [Example 9-1, sodium 2-methylpropyl O-β-D-galactopyranosyl-(1→4)-β-D-glucopyranoside 3'-sulfate]
[1]
  inhibition in vivo at 0.2 mg: 84%
[2]
  inhibition in vivo at 0.2 mg: 58%

## CCCC(CCC)CO[C@@H]1O[C@H](CO)[C@@H](O[C@@H]2O[C@H](COS(=O)(=O)O)[C@H](O)[C@H](OS(=O)(=O)O)[C@H]2O)[C@H](O)[C@H]1O [Example 10-2, disodium 2-propylpentyl O-β-D-galactopyranosyl-(1→4)-β-D-glucopyranoside 3',6'-disulfate]
[1]
  inhibition in vivo at 0.2 mg: 63%
[2]
  inhibition in vivo at 0.2 mg: 82%

## CC(C)CO[C@@H]1O[C@H](COS(=O)(=O)O)[C@H](OS(=O)(=O)O)[C@H](OS(=O)(=O)O)[C@H]1OS(=O)(=O)O [Example 3-2, tetrasodium 2-methylpropyl β-D-galactopyranoside 2,3,4,6-tetrasulfate]
[1]
  inhibition in vivo at 0.2 mg: 49%
[2]
  inhibition in vivo at 0.2 mg: 24%

## CCCC(CCC)CO[C@@H]1O[C@H](CO)[C@@H](O[C@@H]2O[C@H](CO)[C@H](OP(=O)(O)O)[C@H](OP(=O)(O)O)[C@H]2O)[C@H](O)[C@H]1O [Example 21, Tetrasodium 2-propylpentyl O-β-D-galactopyranosyl-(1→4)-β-D-glucopyranoside 3',4'-diphosphate]
[1]
  inhibition in vivo at 0.2 mg: 64%
[2]
  inhibition in vivo at 0.2 mg: 52%

## CC(C)CO[C@@H]1O[C@H](COS(=O)(=O)O)[C@H](O)[C@H](O)[C@H]1O [Example 2, Sodium 2-methylpropyl β-D-galactopyranoside 6-sulfate]
[1]
  inhibition in vivo at 0.2 mg: 36%
[2]
  inhibition in vivo at 0.2 mg: 32%

## CCCCCCCCCCCCCCC(CCCCCCCCCCCCCC)CO[C@@H]1O[C@H](CO)[C@H](O)[C@H](OP(=O)(O)O)[C@H]1O[C@@H]1O[C@@H](C)[C@@H](O)[C@@H](O)[C@@H]1O [Example 27-2, disodium 2-tetradecylhexadecyl O-α-L-fucopyranosyl-(1→2)-β-D-galactopyranoside 3-phosphate]
[1]
  inhibition in vivo at 0.2 mg: 62%
[2]
  inhibition in vivo at 0.2 mg: 58%

## CC(C)CO[C@@H]1O[C@H](CO)[C@H](OP(=O)(O)O)[C@H](OP(=O)(O)O)[C@H]1O [Example 15, Tetrasodium 2-methylpropyl β-D-galactopyranoside 3,4-diphosphate]
[1]
  inhibition in vivo at 0.2 mg: 45%
[2]
  inhibition in vivo at 0.2 mg: 44%

## CCCCCCCCCCCCCCC(CCCCCCCCCCCCCC)CO[C@@H]1O[C@H](CO)[C@H](O)[C@H](OP(=O)(O)O)[C@H]1O[C@@H]1O[C@@H](C)[C@@H](O)[C@@H](OP(=O)(O)O)[C@@H]1O [Example 28-2, tetrasodium 2-tetradecylhexadecyl O-α-L-fucopyranosyl-(1→2)-β-D-galactopyranoside 3,3'-diphosphate]
[1]
  inhibition in vivo at 0.2 mg: 63%
[2]
  inhibition in vivo at 0.2 mg: 55%

## CCCC(CCC)CO[C@@H]1O[C@H](COP(=O)(O)O)[C@H](OP(=O)(O)O)[C@H](OP(=O)(O)O)[C@H]1OP(=O)(O)O [Example 13, Octasodium 2-propylpentyl β-D-galactopyranoside 2,3,4,6-tetranhosphate]
[1]
  inhibition in vivo at 0.2 mg: 43%
[2]
  inhibition in vivo at 0.2 mg: 46%

## CCCC(CCC)CO[C@@H]1O[C@H](COS(=O)(=O)O)[C@H](O)[C@H](OS(=O)(=O)O)[C@H]1O[C@@H]1O[C@@H](C)[C@@H](O)[C@@H](OS(=O)(=O)O)[C@@H]1O [Example 26, Trisodium 2-propylpentyl O-α-L-fucopyranosyl-(1→2)-β-D-galactopyranoside 3,3',6-trisulfate]
[1]
  inhibition in vivo at 0.2 mg: 56%
[2]
  inhibition in vivo at 0.2 mg: 50%

## CCCC(CCC)CO[C@@H]1O[C@H](CO)[C@@H](OP(=O)(O)O)[C@H](OP(=O)(O)O)[C@H]1OP(=O)(O)O [Example 20, Hexasodium 2-propylpentyl δ-D-glucopyranoside 2,3,4-triphosphate]
[1]
  inhibition in vivo at 0.2 mg: 45%
[2]
  inhibition in vivo at 0.2 mg: 40%

## CCCCCCCCCCCCCCC(CCCCCCCCCCCCCC)CO[C@@H]1O[C@H](COS(=O)(=O)O)[C@H](O)[C@H](OS(=O)(=O)O)[C@H]1O[C@@H]1O[C@@H](C)[C@@H](O)[C@@H](O)[C@@H]1O [Example 29, Disodium 2-tetradecylhexadesyl O-α-L-fuconyranosyl-(1→2)-β-D-galactopyranoside 3,6-disulfate]
[1]
  inhibition in vivo at 0.2 mg: 67%
[2]
  inhibition in vivo at 0.2 mg: 65%

## CCCC(CCC)CO[C@@H]1O[C@H](CO)[C@H](O)[C@H](OS(=O)(=O)O)[C@H]1O[C@@H]1O[C@@H](C)[C@@H](O)[C@@H](OS(=O)(=O)O)[C@@H]1O [Example 24-1, Disodium 2-propylpentyl O-α-L-fucopyranosyl-(1→2)-β-D-galactopyranoside 3,3'-disulfate]
[1]
  inhibition in vivo at 0.2 mg: 54%
[2]
  inhibition in vivo at 0.2 mg: 47%

## CCCC(CCC)CO[C@@H]1O[C@H](COS(=O)(=O)O)[C@H](O)[C@H](OS(=O)(=O)O)[C@H]1O [Example 6, Disodium 2-propylpentyl β-D-galactopyranoside 3,6-disulfate]
[1]
  inhibition in vivo at 0.2 mg: 0%
[2]
  inhibition in vivo at 0.2 mg: 12%

## CCCC(CCC)CO[C@@H]1O[C@H](CO)[C@H](O)[C@H](OP(=O)(O)O)[C@H]1O [Example 18, Disodium 2-propylpentyl β-D-galactopyranoside 3-phosphate]
[1]
  inhibition in vivo at 0.2 mg: 50%
[2]
  inhibition in vivo at 0.2 mg: 51%
